Assay results from US6399105B1, “Sea cucumber carotenoid lipid fraction products and methods of use” (priority 2000, dated 2002).

How the values were obtained:
[1] = system: adjuvant induced arthritis; assay: Adjuvant induced arthritis assay in rats; type: in vivo, rat; conditions: 10 mg/kg orally once per day for 7 days; for Mean Paw Wt.: 6 rats; for % Anti-inflammatory Response: (control - test)/test x 100
12-lipoxygenase = target: T1, 12-lipoxygenase (Homo sapiens, UniProt P18054); assay: 12-HETE assay using human platelets; type: cell-based
T1 construct: assayed by the method similar to the assay for 5-lipoxygenase by using human platelets; endogenous in cells; host or cells: human platelets (mixed with polymorphonuclear leukocytes, challenged with A23187)
T1 sequence (P18054 1-663): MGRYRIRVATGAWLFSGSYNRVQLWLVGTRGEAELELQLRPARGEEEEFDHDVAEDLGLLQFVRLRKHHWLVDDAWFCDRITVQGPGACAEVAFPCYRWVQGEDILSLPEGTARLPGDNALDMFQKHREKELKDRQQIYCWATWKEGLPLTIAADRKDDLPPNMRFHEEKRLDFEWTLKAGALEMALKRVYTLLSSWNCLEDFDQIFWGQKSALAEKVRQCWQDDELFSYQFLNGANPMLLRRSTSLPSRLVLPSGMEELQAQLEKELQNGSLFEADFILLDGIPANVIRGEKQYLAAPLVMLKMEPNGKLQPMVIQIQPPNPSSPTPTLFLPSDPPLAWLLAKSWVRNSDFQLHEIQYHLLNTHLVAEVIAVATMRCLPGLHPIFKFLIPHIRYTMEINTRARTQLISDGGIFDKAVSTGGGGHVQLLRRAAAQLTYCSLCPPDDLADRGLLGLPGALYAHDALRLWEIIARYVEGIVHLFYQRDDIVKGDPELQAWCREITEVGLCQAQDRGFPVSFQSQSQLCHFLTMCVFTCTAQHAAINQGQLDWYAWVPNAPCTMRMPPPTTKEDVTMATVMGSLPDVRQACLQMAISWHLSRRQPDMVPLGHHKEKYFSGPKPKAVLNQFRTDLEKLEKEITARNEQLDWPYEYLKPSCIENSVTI
Description: RED OIL and GOLD OIL were assayed by the method similar to the assay for 5-lipoxygenase by using human platelets. Polymorphonuclear leukocytes were mixed, challenged with A23187, and 12-HETE production was measured by high pressure liquid chromatography (HPLC). Addition of a 1:10,000 dilution of RED OIL to the reaction yielded 12-HETE levels that were 65% that of methanolic controls, while A 1:1000 dilution of GOLD OIL yielded levels that were 46% of controls.

[2] = system: PC3, MCF7, HT29 or BRO cell lines; assay: Anti-cancer assays, MTT viable dye method, 72 hr; type: cell-based; conditions: human cancer cell lines
Description: RED OIL and GOLD OIL and various thin-layer chromatographic fractions have been tested against human cancer cell lines in vitro. Materials were initially dissolved in dimethyl sulfoxide and then diluted in tissue culture media. Aliquots of 23 μg/mL were then applied to PC3 (human prostate), MCF7 (human breast adenocarcinoma), HT29 (human colon adenocarcinoma) or BRO (human melanoma) cell lines. These fractions mediated inhibition of cell growth relative to untreated control cells as assessed after 72 hr by the MTT viable dye method as is commonly used by those skilled in the arts. […] One such fraction isolated from sea cucumber lipid phase by the method of Findlay et al. (1983b), plastochromanol-8, was considered to be promising in that values of 20-50 μg/mL were determined as IC50 values (that concentration inhibiting 50% of cell growth). […] Plastochromanol-8 was also shown to be inhibitory of the 12-Lipoxygenase pathway in human platelets.

[3] = system: leukotriene synthesis in human neutrophils; assay: Leukotriene activation/synthesis assay in human neutrophils (method of Betts); type: cell-based
Source text: In a leukotriene activation assay showing the effect of plastochromanol-8 on leukotriene synthesis expressed as a percentage of a methanol control in human neutrophils, by the method of Betts (1997), plastochromanol-8 inhibited activation of 5-HETE by approximately 60 percent, LTB4 by approximately 40 percent, and two of the 6-trans isomers of LTB4 (6-trans-leukotriene B4 and 6-trans-12-epileukotriene B4), by 75%. In a related assay of the effect of plastochromanol-8 on leukotriene synthesis expressed as leukotriene synthesis per 10^6 PMN, plastochromanol-8 inhibited the production of 5-HETE by approximately 75%, LTB4 by 50%, and the two trans-6 isomers of LTB4 by approximately 80%. In similar assays with human platelets, plastochromanol-8 inhibited 12-HETE synthesis by approximately 80%.

5-lipoxygenase (5-LO) = target: T2, 5-lipoxygenase (5-LO) (Homo sapiens, UniProt P09917); assay: 5-Lipoxygenase assay in human PMNs (LTB4, isomers, 5-HETE by HPLC); type: cell-based; conditions: human neutrophils
T2 construct: Human PMNs isolated by standard procedures from a normal volunteer were prewarmed to 37° C; endogenous in cells; host or cells: human polymorphonuclear leukocytes (neutrophils) from a normal volunteer
T2 sequence (P09917 1-674): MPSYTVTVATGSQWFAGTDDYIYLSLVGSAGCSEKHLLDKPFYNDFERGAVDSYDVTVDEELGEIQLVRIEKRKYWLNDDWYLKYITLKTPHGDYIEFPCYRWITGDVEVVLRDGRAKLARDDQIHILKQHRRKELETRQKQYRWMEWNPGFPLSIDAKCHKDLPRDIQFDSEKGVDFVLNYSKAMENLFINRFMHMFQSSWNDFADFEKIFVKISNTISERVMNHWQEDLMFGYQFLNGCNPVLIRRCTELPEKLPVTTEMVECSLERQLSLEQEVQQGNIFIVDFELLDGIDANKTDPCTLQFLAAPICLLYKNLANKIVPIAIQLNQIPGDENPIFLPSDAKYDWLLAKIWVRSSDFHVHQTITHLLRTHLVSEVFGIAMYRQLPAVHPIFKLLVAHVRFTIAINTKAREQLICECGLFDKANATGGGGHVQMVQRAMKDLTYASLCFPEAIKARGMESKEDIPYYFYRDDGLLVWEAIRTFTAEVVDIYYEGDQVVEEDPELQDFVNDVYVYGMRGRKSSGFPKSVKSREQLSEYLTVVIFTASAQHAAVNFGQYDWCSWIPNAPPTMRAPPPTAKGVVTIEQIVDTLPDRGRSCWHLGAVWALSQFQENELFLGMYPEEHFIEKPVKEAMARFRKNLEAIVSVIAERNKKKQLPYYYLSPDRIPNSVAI
Source text: 5-lipoxygenase (5-LO) is a key enzyme in the metabolism of arachidonic acid (AA) to leukotriene B4 (LTB4) and hydroxyeicosatetraenoic acid (5-HETE) it a wide variety of cells. including polymorphonuclear (PMN) leukocytes (Henderson, 1994) and has recently been linked to prostate and other cancers (Ghosh and Myers, 1997). LTB4 is a chemotaxic signaling agent involved in the migration of PMNs from the blood stream to sites of tissue injury, which is a hallmark of the inflammatory response. Human PMNs isolated by standard procedures from a normal volunteer were prewarmed to 37° C. and, at time=0, 10 μL of test compounds suspended in methanol by sonication, or methanol alone, were added to 1 mL of the PMN suspension. At t=10 min, […] of 2 mM AA were added to each suspension as the 5-LO substrate. At t=14 min, the calcium ionophore A23187 ([…], 1 mM) was added to activate the enzyme. The reaction was terminated at t=19 minutes by 100 μL of 100 mM citric acid, maintaining a pH of 3.0. Prostaglandin B2 and 15-HETE were added as internal standards for high pressure liquid chromatography (HPLC) quantification of LTB, and 5-HETE, respectively. Metabolites and standards were extracted from the suspension with chloroform/methanol (7:3). […] Metabolites were detected by ultraviolet light and quantified against standard curves. […]

[4] = leukotriene synthesis as percentage of methanol control
[5] = leukotriene synthesis per 10^6 PMN

Row | inhibition of 12-HETE synthesis (12-lipoxygenase) | inhibition of 12-lipoxygenase pathway, in words (12-lipoxygenase) | IC50 (concentration inhibiting 50% of cell growth) [2] | inhibition of 5-lipoxygenase metabolite synthesis (LTB4, isomers, 5-HETE), in words (5-lipoxygenase (5-LO)) | SMILES | Mean Paw Wt. [1] | % Anti-inflammatory Response [1] | inhibition of 5-HETE [3, 4] | inhibition of 6-trans-leukotriene B4 and 6-trans-12-epileukotriene B4 [3, 4] | inhibition of LTB4 [3, 4] | inhibition of production of 5-HETE [3, 5] | inhibition of production of LTB4 [3, 5] | inhibition of production of the two trans-6 isomers of LTB4 [3, 5]
1 |  |  |  |  | C[C@]12CCC(=O)C=C1CC[C@@H]1[C@@H]2[C@@H](O)C[C@@]2(C)[C@H]1CC[C@]2(O)C(=O)CO [Hydrocortisone] | 0.61 gm | 59.0% |  |  |  |  |  | 
2 |  |  |  |  | CCCCC1C(=O)N(c2ccccc2)N(c2ccccc2)C1=O [Phenylbutazone] | 0.38 gm | 155.3% |  |  |  |  |  | 
3 | approximately 80% | inhibitory | 20 to 50 µg/mL | dramatic inhibitor | CC(C)=CCC/C(C)=C/CC/C(C)=C/CC/C(C)=C/CC/C(C)=C/CC/C(C)=C/CC/C(C)=C/CC/C(C)=C/CC[C@]1(C)CCc2cc(O)c(C)c(C)c2O1 [plastochromanol-8] |  |  | approximately 60% | 75% | approximately 40% | approximately 75% | 50% | approximately 80%
